The values that follow are results of earlier work, collected in US4968506A, “Pharmaceutical dosage with core of N-acetyl cystein” (Lejus Medical Aktienbolag, priority 1988, dated 1990).

Structures are written as SMILES.

The data set deals with mucous membrane in the stomach. The conditions noted are these: N-acetyl cysteine.

Turning to `CC(=O)N[C@@H](CS)C(=O)O` [N-Acetyl cysteine, N-acetyl cysteine], the reported side effects entry is given as “irritating effect on the mucous membrane in the stomach”.
